Measurements: the C3SDB collision cross section collection
“And” between values parts separate entries of the source, which are not always exact repeats. Equal values may be shown once.

Details: instrument: TW, calibrated with polyalanine and drug standards

| Compound | collision cross section (N2) ([M+H]+) | other results |
| --- | --- | --- |
| CN(Cc1cnc2nc(N)nc(N)c2n1)c1ccc(C(=O)N[C@@H](CCC(=O)O)C(=O)O)cc1 [METHOTREXATE] | 194.8 Å² |  |
| COc1c2occc2cc2ccc(=O)oc12 [METHOXSALEN] | 139.9 Å² |  |
| C[C@](N)(Cc1ccc(O)c(O)c1)C(=O)O [METHYLDOPA] | 147.6 Å² |  |
| CC[C@H](C)C(=O)O[C@H]1CCC=C2C=C[C@H](C)[C@H](CC[C@@H]3C[C@@H](O)CC(=O)O3)[C@H]21 [MEVASTATIN] |  | collision cross section (N2) ([M+Na]+): 198.4 Å² |
| CC1=CC2C(CC1=O)C(C)=CCC2C(C)C (centres undefined) [MUUROLLADIE-3-ONE] | 138.5 Å² |  |
| c1cncc(C2=NCCC2)c1 [MYOSMINE] | 128.2 Å² |  |
| NC(N)=NC(=O)c1nc(Cl)c(N2CCCCCC2)nc1N [N,N-HEXAMETHYLENEAMILORIDE] | 174.7 Å² |  |
| CCC(C)C(NC)C(=O)O (centres undefined) [N-METHYLISOLEUCINE] | 130.6 Å² |  |
| CN1CCOC(c2ccccc2)c2ccccc2C1 (centres undefined) [NEFOPAM] | 157.1 Å² |  |
| Cc1c(NC(=O)c2cccnc2)c(=O)n(-c2ccccc2)n1C [NIFENAZONE] | 172.5 Å² |  |
| COc1ccc(-c2cc(=O)c3c(OC)c(OC)c(OC)c(OC)c3o2)cc1OC [NOBILETIN] | 191.3 Å² |  |
| NC[C@H](O)c1ccc(O)c(O)c1 [NOREPINEPHRINE] |  | collision cross section (N2) ([M+H-H2O]+): 132.6 Å² |
| CCn1cc(C(=O)O)c(=O)c2cc(F)c(N3CCNCC3)cc21 [NORFLOXACIN] | 184.2 Å² and 170 Å² |  |
| C#C[C@]1(OC(C)=O)CC[C@H]2[C@@H]3CCC4=C/C(=N/O)CC[C@@H]4[C@H]3CC[C@@]21CC [NORGESTIMATE] | 197.6 Å² |  |
| C#C[C@]1(O)CC[C@H]2[C@@H]3CCC4=CC(=O)CC[C@@H]4[C@H]3CC[C@@]21CC [NORGESTREL] | 178.6 Å² |  |
| CNCCC=C1c2ccccc2CCc2ccccc21 [NORTRIPTYLINE] | 163.1 Å² |  |
| C=C(C)[C@H]1COc2cc3oc(=O)ccc3cc2O1 [OBLIQUIN] | 150.1 Å² |  |
| COc1ccc(CC(=O)c2ccc(O)cc2O)cc1 [ONONETIN] | 157.4 Å² |  |
| CN1CCCN=C1/C=C/c1cccc(O)c1 [OXANTEL] | 152.6 Å² |  |
| CN(C(=O)CN(CCO)CC(=O)N(C)C(C)(C)Cc1ccccc1)C(C)(C)Cc1ccccc1 [OXETHAZAINE] | 213.7 Å² |  |
| COc1cc2c(cc1-c1cc3cc4ccoc4cc3oc1=O)OCO2 [PACHYRRHIZIN] | 170.7 Å² |  |
| COc1ccnc(CS(=O)c2nc3ccc(OC(F)F)cc3[nH]2)c1OC (centres undefined) [PANTOPRAZOLE] | 183.4 Å² |  |
| Oc1ccc(Cl)cc1 [PARACHLOROPHENOL] | 108.8 Å² |  |

| Compound | collision cross section (N2) ([M+H]+) | other results |
| --- | --- | --- |
| OC1(c2ccc(Cl)c(C(F)(F)F)c2)CCN(CCCC(c2ccc(F)cc2)c2ccc(F)cc2)CC1 [PENFLURIDOL] | 219.1 Å² |  |
| C1CCc2nnnn2CC1 [PENTYLENETETRAZOL] | 124.5 Å² |  |
| CCOc1ccc(NC(C)=O)cc1 [PHENACETIN] | 140.5 Å² |  |
| O=C1OC(c2ccc(O)cc2)(c2ccc(O)cc2)c2ccccc21 [PHENOLPHTHALEIN] | 172.1 Å² |  |
| CC(C)=CC1C(C(=O)OCc2cccc(Oc3ccccc3)c2)C1(C)C (centres undefined) [PHENOTHRIN] | 187.5 Å² |  |
| Nc1ccc(C(=O)Oc2ccccc2)c(O)c1 [PHENYL AMINOSALICYLATE] | 163.4 Å² |  |
| CCCCC1C(=O)N(c2ccccc2)N(c2ccccc2)C1=O [PHENYLBUTAZONE] | 172.4 Å² |  |
| CC(C)(O)[C@@H]1[C@H]2OC(=O)[C@@H]1[C@]1(O)C[C@H]3O[C@]34C(=O)O[C@H]2[C@]14C [PICROTIN] |  | collision cross section (N2) ([M+Na]+): 173.7 Å² |
| C=C(C)[C@@H]1[C@H]2OC(=O)[C@@H]1[C@]1(O)C[C@H]3O[C@]34C(=O)O[C@H]2[C@]14C [PICROTOXININ] |  | collision cross section (N2) ([M+Na]+): 168.7 Å² |
| COc1c(OC)c2occc2c2oc(=O)ccc12 [PIMPINELLIN] | 146.4 Å² |  |
| CC(N=C(NC#N)Nc1ccncc1)C(C)(C)C (centres undefined) [PINACIDIL] | 165.2 Å² |  |
| O=C(O)/C=C/C=C/c1ccc2c(c1)OCO2 [PIPERIC ACID] | 138.6 Å² |  |
| O=C(/C=C/C=C/c1ccc2c(c1)OCO2)N1CCCCC1 [PIPERINE] | 171.4 Å² |  |
| CCn1cc(C(=O)O)c(=O)c2cnc(N3CCCC3)nc21 [PIROMIDIC ACID] | 161.1 Å² |  |
| CN1C(C(=O)Nc2ccccn2)=C(O)c2ccccc2S1(=O)=O [PIROXICAM] | 170.7 Å² |  |
| CC(C)c1c(O)c(-c2cc3c(c(C(C)C)c2O)CCC2C(C)(C)CCC[C@]32C)cc2c1CCC1C(C)(C)CCC[C@]21C (some centres undefined) [PODOTOTARIN] | 255.6 Å² |  |
| CC(C)=CCc1c2c(c3occ(-c4ccc(O)c(O)c4)c(=O)c3c1O)C=CC(C)(C)O2 [POMIFERIN] | 205.8 Å² |  |
| CC(=O)OCC(=O)[C@@]1(O)CC[C@H]2[C@@H]3CCC4=CC(=O)C=C[C@]4(C)[C@H]3[C@@H](O)C[C@@]21C [PREDNISOLONE ACETATE] | 194 Å² |  |
| C[C@]12C=CC(=O)C=C1CC[C@@H]1[C@@H]2C(=O)C[C@@]2(C)[C@H]1CC[C@]2(O)C(=O)CO [PREDNISONE] | 181.8 Å² |  |
| CCC1(c2ccccc2)C(=O)NCNC1=O [PRIMIDONE] | 146.9 Å² |  |
| CCCn1cnc2c1c(=O)n(CCCCC(C)=O)c(=O)n2C [PROPENTOFYLLINE] | 168.3 Å² |  |
| CCCc1cc(=O)[nH]c(=S)[nH]1 [PROPYLTHIOURACIL] | 134.7 Å² |  |
| CCCc1cc(C(N)=S)ccn1 [PROTIONAMIDE] | 141.3 Å² |  |

| Compound | collision cross section (N2) ([M+H]+) | other results |
| --- | --- | --- |
| CC[C@@H](C)C(=O)O[C@H]1[C@H](O)[C@H]2[C@@H](CN3C[C@@H](C)CC[C@H]3[C@@]2(C)O)[C@@H]2C[C@]34O[C@]5(O)[C@@H](OC(=O)[C@@](C)(O)CC)CC[C@@]3(C)[C@@H]5[C@@H](OC(C)=O)[C@@H](OC(C)=O)[C@H]4[C@@]21O [PROTOVERATRINE A] | 285.2 Å² |  |
| CC[C@@H](C)C(=O)O[C@H]1[C@H](O)[C@H]2[C@@H](CN3C[C@@H](C)CC[C@H]3[C@@]2(C)O)[C@@H]2C[C@]34O[C@]5(O)[C@@H](OC(=O)[C@](C)(O)[C@@H](C)O)CC[C@@]3(C)[C@@H]5[C@@H](OC(C)=O)[C@@H](OC(C)=O)[C@H]4[C@@]21O [PROTOVERATRINE B] | 287 Å² |  |
| CCc1nc(N)nc(N)c1-c1ccc(Cl)cc1 [PYRIMETHAMINE] | 155.8 Å² |  |
| Cc1ncc(CSSCc2cnc(C)c(O)c2CO)c(CO)c1O [PYRITINOL] | 173.4 Å² |  |
| O=c1c(O)c(-c2ccc(O)c(O)c2)oc2cc(O)cc(O)c12 [QUERCETIN] | 163.4 Å² |  |
| O=C(O)c1cccnc1C(=O)O [QUINOLINIC ACID] | 130.2 Å² |  |
| Cc1c(NC(C)C)c(=O)n(-c2ccccc2)n1C [RAMIFENAZONE] | 156.5 Å² |  |
| COc1ccccc1OCC(O)CN1CCN(CC(=O)Nc2c(C)cccc2C)CC1 (centres undefined) [RANOLAZINE] | 205.2 Å² |  |
| COC(=O)[C@H]1[C@H]2C[C@@H]3c4[nH]c5cc(OC)ccc5c4CCN3C[C@H]2C[C@@H](OC(=O)c2cc(OC)c(OC)c(OC)c2)[C@@H]1OC [RESERPINE] | 247.3 Å² |  |
| COc1ccc(/C=C/c2cc(O)cc(O)c2)cc1 [RESVERATROL 4'-METHYL ETHER] | 157.3 Å² |  |
| COc1ccc(-c2coc3c(O)c(OC)ccc3c2=O)cc1 [RETUSIN 7-METHYL ETHER] | 164.1 Å² |  |
| COc1cc(O)c2c(=O)c(OC)c(-c3ccc(OC)c(OC)c3)oc2c1 [RETUSIN] | 180.8 Å² |  |
| C[C@@H]1O[C@@H](O[C@H]2[C@H](Oc3cc(O)c4c(=O)cc(-c5ccc(O)cc5)oc4c3)O[C@H](CO)[C@@H](O)[C@@H]2O)[C@H](O)[C@H](O)[C@H]1O [RHOIFOLIN] | 231.9 Å² |  |
| CO[C@H]1/C=C/O[C@@]2(C)Oc3c(C)c(O)c4c(O)c(c5c(nc6cc(C)ccn65)c4c3C2=O)NC(=O)/C(C)=C\C=C\[C@H](C)[C@H](O)[C@@H](C)[C@@H](O)[C@@H](C)[C@H](OC(C)=O)[C@@H]1C [RIFAXIMIN] | 267.8 Å² |  |
| CCCCCCCCCCCC[C@@H](C(=O)O)[C@H](C)C(=O)O [ROCCELLIC ACID] |  | collision cross section (N2) ([M+Na]+): 186.2 Å² |
| CN(CCOc1ccc(CC2SC(=O)NC2=O)cc1)c1ccccn1 (centres undefined) [ROSIGLITAZONE] | 172.6 Å² |  |
| C=C(C)[C@H]1Cc2c(ccc3c2O[C@@H]2COc4cc(OC)c(OC)cc4[C@@H]2C3=O)O1 [ROTENONE] | 193.2 Å² |  |
| O=[N+]([O-])c1cc([As](=O)(O)O)ccc1O [ROXARSONE] | 145.5 Å² |  |
| O=C(Oc1ccccc1C(=O)O)c1ccccc1O [SALSALATE] | 151.3 Å² |  |
| COc1cc2c(cc1OC)C(C)NCC2 (centres undefined) [SALSOLIDINE] | 150.9 Å² |  |
| C[C@@H]1CC[C@@]2(NC1)O[C@H]1C[C@H]3[C@@H]4CC=C5C[C@@H](O)CC[C@]5(C)[C@H]4CC[C@]3(C)[C@H]1[C@@H]2C [SOLASODINE] | 207.8 Å² |  |
| CO[C@@H]1[C@@H](OC2OC(C)C(OC3CC(C)(O)C(O)C(C)O3)C(N(C)C)C2O)[C@@H](CC=O)C[C@@H](C)[C@@H](OC2CCC(N(C)C)C(C)O2)/C=C/C=C/C[C@@H](C)OC(=O)C[C@H]1O (some centres undefined) [SPIRAMYCIN] | 317 Å² |  |
| C[C@]12CC[C@H]3[C@@H](CC[C@]4(O)C[C@@H](O)CC[C@]34C=O)[C@@]1(O)CC[C@@H]2C1=CC(=O)OC1 [STROPHANTHIDIN] | 196.7 Å² |  |
